Reference: PMC13242511, “Disrupting Notch signalling by a small molecule inhibiting dihydroorotate dehydrogenase activity” (Scientific Reports, 2026)
Where a SMILES comes first, the peptide text is derived from it. The star is where a group is joined. Cbz = O=C(OCc1ccccc1)*

Key:
Drosophila melanogaster = conditions: cited from earlier work
[1] = system: mNotch1ΔE fused to an HiBiT tag; assay: HiBit reporter assay; format: cell-based, mouse; conditions: 24 h, 14-point dose-response; Supplemental Fig. 8D,G
Experimental: The Notch1ΔE construct used to generate the Notch reporter cell line (see above) was first cloned in frame into the pBiT3.2-C [TK/HiBiT/Blast] Vector (Promega) and then stably introduced into HEK293T wild type cells, using Lipofectamine transfection, as described. Analogous to the Notch reporter cell line, Blasticidin was used as a selection marker (0.1 mg/ml) and stable cell lines with robust luciferase signals were generated. […] A clone (#D2) with an empty HiBit vector stably integrated was used as control.
20 µl containing 4,000 cells were seeded on 384-well pre-spotted compound plates (Greiner, cat #781080). Cells were incubated for 24 h and viability was determined using CellTiter-Fluor (Promega, cat # G6080), following the manufacturer’s instructions. Next, cells were subjected to the HiBit assay according to the manufacturer’s instructions (Promega, cat # N3030). Prior to cell lysis, the tissue culture plates were allowed to cool down to room temperate. Fluorescence and luminescence signals were recorded using a SpectraMax i3 (Molecular devices) and signals were read at different time-points to determine optimal signal stability. Cells cultivated only with DMSO were used as a reference to determine effects of compounds. MG132, Bafilomycin A1 and the GSI RO4929097 served as additional controls. Celastrol was used to determine the assay window, and a minimum of two technical replicates were measured per assay.

Notch signalling [2] = assay: Notch reporter assay (12xCSL firefly luciferase / renilla luciferase, HEK293T Notch1ΔE reporter cell line clone #A1-11); format: cell-based; parameters: Confirmation screen: unit not given here; conditions: for inhibitor ratio in % of DMSO in 3 point DR: 3-point DR confirmation screen, Notch reporter assay
In short: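 Compounds at two-fold concentration in 10 µl medium were brought to one-fold by adding 10 µl holding 4000 Notch reporter cells (clone #A1-11) per well of a 384-well plate. After 24 h, Promega dual-GLO firefly and renilla luciferase were read on a SpectraMaxi3. Dose-response curves were fitted with a log(inhibitor) vs. response variable-slope model.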

γ-secretase complex = γ-secretase complex (Homo sapiens, UniProt P49768); assay: APP-C99 counter assay (GSI reporter assay); format: cell-based; conditions: for 3p-DR in % of DMSO counter: APP-C99 counter assay
In short: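 Cells transfected with APP-C99 firefly luciferase reporter plus renilla normalization plasmid, seeded 24 h later onto compound plates and cultured 24 h. Dual luciferase read in triplicate per concentration; IC50 from variable-slope log(inhibitor) fit, with AUC also calculated from dose–response curves.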

Notch signalling [3] = assay: Notch reporter assay (12xCSL firefly luciferase / renilla luciferase, HEK293T Notch1ΔE reporter cell line clone #A1-11); format: cell-based; conditions: 24 h, unit from Fig. 2 legend
[4] = system: Notch1 ICD-induced mouse model of T-ALL; parameters: method as in PMID 37648673; conditions: cited from earlier work
[5] = system: T-ALL and breast cancer cell lines; assay: Growth inhibition in tumour cell lines (panel, cell lines not named singly); format: cell-based; conditions: overview in comparison to compound C; Supplemental Fig. 9
Excerpt: We next investigated whether compounds A-E affected growth and viability of cell lines from T-cell acute lymphoblastic leukaemia (T-ALL) and breast cancer, two tumour types in which elevated Notch signalling has been implicated in tumorigenesis. […] When testing analogues of compounds B and C, five of the seven B analogues and one of the two C analogues produced dose–response curves and IC50s, which however were higher compared to the original hits (Supplemental Fig. 5A; IC50s are presented in Supplemental Table 6).
Compounds were spotted on white 384-well tissue culture plates (Greiner, cat #781080) using an Echo 525 Acoustic liquid handler (Labcyte). Cells were grown to 80% confluence, detached if required, counted and 20 µl containing 2000–4000 cells per well was then seeded in each well and cultivated for three (4,000 cells seeded) and six days (2,000 cells seeded). […] Luciferase activity (reading out metabolic activity) was determined using the CellTiter-Glo 2.0 kit (CTG, Promega, cat #G9242) following the manufacturer’s instructions and luminescence was measured on a SpectraMaxi3 or Varioscan plate reader (Molecular Devices, Thermofisher).

[6] = 10 µM, sheet conf vs counter 10 µM, same values as 3-point DR confirmation screen
[7] = 25 µM, Notch reporter 3-point dose-confirmation assay, sheet "conf vs counter 25 µM"
[8] = 10 µM, sheet conf vs counter 10 µM
[9] = 25 µM, sheet "conf vs counter 25 µM", same values given as % of DMSO in sheet "3p-DR in % of DMSO counter"
[10] = overview in comparison to compound C, Supplemental Fig. 9

3p-DR in % of DMSO counter (γ-secretase complex; 10µM) | Counter screen (Hek APP-C99) (γ-secretase complex; [8]) | 3p-DR in % of DMSO counter (γ-secretase complex; 25µM) | Counter screen (Hek APP-C99) (γ-secretase complex; [9]) | 3p-DR in % of DMSO counter (γ-secretase complex; 1,25µM) | Molecule | phenotype after chemical DHODH inhibition (Drosophila melanogaster) | HiBiT luciferase signal [1] | inhibitor ratio in % of DMSO in 3 point DR (Notch signalling [2]; 10µM) | Confirmation screen (Notch signalling [2]; [6]) | inhibitor ratio in % of DMSO in 3 point DR (Notch signalling [2]; 25µM) | Confirmation screen (Notch signalling [2]; [7]) | inhibitor ratio in % of DMSO in 3 point DR (Notch signalling [2]; 1,25µM) | Primary screen at 10 µM (Notch reporter signal) (Notch signalling [3]) | outcome in Notch1 ICD-induced mouse model of T-ALL [4] | IC50 (Notch signalling [2]; expanded dose range 500 nM-25 pM, Fig. 7E, read-out: IC50, Notch reporter activity) | Notch assay (Notch signalling [2]; [10]) | APP assay (γ-secretase complex; [10]) | viability assay [5]
58.6 % of DMSO | 58.6 | 58.2 % of DMSO | 58.2 | 84.7 % of DMSO | O=C(Nc1sccc1C(=O)N1CCOCC1)C(Sc1ccccc1)c1ccccc1 (stereo not shown) [CBK268165] | – | – | 60.1 % of DMSO | 60.1 | 57.1 % of DMSO | 57.1 | 101.2 % of DMSO | 64.8 % of DMSO | – | – | – | – | –
49.5 % of DMSO | 49.5 | 70.8 % of DMSO | 70.8 | 72.9 % of DMSO | COc1ccc2cc(C(=O)N3CCC(c4ccncc4)CC3)[nH]c2c1 [CBK283799] | – | – | 56.5 % of DMSO | 56.5 | 73.6 % of DMSO | 73.6 | 82.5 % of DMSO | 60.5 % of DMSO | – | – | – | – | –
45.9 % of DMSO | 45.9 | 37.5 % of DMSO | 37.5 | 59.5 % of DMSO | c1ccc2c(c1)CCN(c1nc3cc4c(cc3s1)OCCO4)C2 [CBK287498] | – | – | 38.9 % of DMSO | 38.9 | 27.1 % of DMSO | 27.1 | 48.5 % of DMSO | 36.8 % of DMSO | – | – | – | – | –
109.0 % of DMSO | 108.9 | 82.2 % of DMSO | 82.2 | 116.8 % of DMSO | Cc1ccc(NC(=O)c2cnc(SCc3ccc(F)cc3)n(C)c2=O)cc1C [CBK287674] | – | – | 73.8 % of DMSO | 73.8 | 47.2 % of DMSO | 47.2 | 99.3 % of DMSO | 65.6 % of DMSO | – | – | – | – | –
62.4 % of DMSO | 62.4 | 22.0 % of DMSO | 22.0 | 131.3 % of DMSO | COc1ccc(-c2noc([C@@H]3Cc4[nH]cnc4CN3C(=O)CCC(=O)O)n2)cc1 [CBK288967] | – | – | 51.6 % of DMSO | 51.6 | 56.4 % of DMSO | 56.4 | 72.4 % of DMSO | 51.7 % of DMSO | – | – | – | – | –
93.1 % of DMSO | 93.1 | 78.1 % of DMSO | 78.1 | 112.2 % of DMSO | c1ccc2oc(CN3Cc4nc[nH]c4C[C@H]3c3nc(-c4ccc5c(c4)OCO5)no3)cc2c1 [CBK288998] | – | – | 72.8 % of DMSO | 72.8 | 66.3 % of DMSO | 66.3 | 89.6 % of DMSO | 68.4 % of DMSO | – | – | – | – | –
23.7 % of DMSO | 23.6 | 12.4 % of DMSO | 12.4 | 76.3 % of DMSO | C[C@@H]1C(=O)O[C@H]2[C@H]1CC[C@@]1(C)Cc3sc(NC(=O)CCC(=O)O)nc3[C@@H](C)[C@H]21 [CBK289429] | – | – | 38.0 % of DMSO | 38.0 | 25.1 % of DMSO | 25.1 | 77.4 % of DMSO | 35.5 % of DMSO | – | – | – | – | –
58.4 % of DMSO | 58.4 | 61.0 % of DMSO | 61.0 | 71.4 % of DMSO | C[C@@H]1C(=O)O[C@H]2[C@H]1CC[C@@]1(C)Cc3sc(NC(=O)CN(C)C)nc3[C@@H](C)[C@H]21 [CBK289431] | – | – | 39.6 % of DMSO | 39.6 | 35.0 % of DMSO | 35.0 | 40.7 % of DMSO | 41.2 % of DMSO | – | – | – | – | –
16.4 % of DMSO | 16.4 | 13.7 % of DMSO | 13.7 | 29.7 % of DMSO | O=C(O)c1c2c(nc3ccccc13)C(=Cc1ccc3c(c1)OCCO3)CC2 [CBK297479] | – | – | 15.2 % of DMSO | 15.2 | 7.0 % of DMSO | 7.0 | 22.8 % of DMSO | 18.5 % of DMSO | – | – | – | – | –
59.0 % of DMSO | 59.0 | 46.1 % of DMSO | 46.1 | 61.2 % of DMSO | COc1cccc(OCC2CCCN(C(=O)CCc3cnn(C)c3)C2)c1 (stereo not shown) [CBK306931] | – | – | 57.0 % of DMSO | 57.0 | 34.9 % of DMSO | 34.9 | 63.9 % of DMSO | 46.7 % of DMSO | – | – | – | – | –

Further lines, the molecule ahead of its results:

Molecule | 3p-DR in % of DMSO counter (γ-secretase complex; 10µM) | Counter screen (Hek APP-C99) (γ-secretase complex; [8]) | 3p-DR in % of DMSO counter (γ-secretase complex; 25µM) | Counter screen (Hek APP-C99) (γ-secretase complex; [9]) | 3p-DR in % of DMSO counter (γ-secretase complex; 1,25µM) | phenotype after chemical DHODH inhibition (Drosophila melanogaster) | HiBiT luciferase signal [1] | inhibitor ratio in % of DMSO in 3 point DR (Notch signalling [2]; 10µM) | Confirmation screen (Notch signalling [2]; [6]) | inhibitor ratio in % of DMSO in 3 point DR (Notch signalling [2]; 25µM) | Confirmation screen (Notch signalling [2]; [7]) | inhibitor ratio in % of DMSO in 3 point DR (Notch signalling [2]; 1,25µM) | Primary screen at 10 µM (Notch reporter signal) (Notch signalling [3]) | outcome in Notch1 ICD-induced mouse model of T-ALL [4] | IC50 (Notch signalling [2]; expanded dose range 500 nM-25 pM, Fig. 7E, read-out: IC50, Notch reporter activity) | Notch assay (Notch signalling [2]; [10]) | APP assay (γ-secretase complex; [10]) | viability assay [5]
Cc1c(C(=O)O)[nH]c(=O)[nH]c1=O [5-methyl orotate] | – | – | – | – | – | phenocopied Notch mutations | – | – | – | – | – | – | – | – | – | – | – | –
CO/C1=C\C(C)=C\[C@@H](C)[C@@H](O)[C@@H](C)C/C(C)=C/C=C/[C@H](OC)[C@@H]([C@@H](C)[C@@H](O)[C@H](C)[C@@]2(O)C[C@@H](O)[C@H](C)[C@@H](C(C)C)O2)OC1=O [Bafilomycin A1, reference compound] | – | – | – | – | – | – | increased the HiBiT signal | – | – | – | – | – | – | – | – | – | – | –
CC(C)C[C@@H](C=O)NC(=O)[C@H](CC(C)C)NC(=O)[C@H](CC(C)C)NC(=O)OCc1ccccc1 [MG132, reference compound] (Cbz-Leu-Leu-Leu-aldehyde) | – | – | – | – | – | – | increased the HiBiT signal | – | – | – | – | – | – | – | – | – | – | –
Cc1c(-c2ccc(-c3ccccc3F)cc2)nc2ccc(F)cc2c1C(=O)O [brequinar] | – | – | – | – | – | – | – | – | – | – | – | – | – | curative | – | – | – | –
BAY2402234 [reference compound] | – | – | – | – | – | – | – | – | – | – | – | – | – | – | 0.011 µM | higher potency | higher potency | reduced
